Data as given in ChEMBL document CHEMBL1133123 (J Med Chem, 2000).

Tests used:
[1] = target: T1, Alpha-2B adrenergic receptor (Homo sapiens, UniProt P18089); assay: Binding affinity towards Alpha-2B adrenergic receptor
T1 sequence (P18089 whole entry): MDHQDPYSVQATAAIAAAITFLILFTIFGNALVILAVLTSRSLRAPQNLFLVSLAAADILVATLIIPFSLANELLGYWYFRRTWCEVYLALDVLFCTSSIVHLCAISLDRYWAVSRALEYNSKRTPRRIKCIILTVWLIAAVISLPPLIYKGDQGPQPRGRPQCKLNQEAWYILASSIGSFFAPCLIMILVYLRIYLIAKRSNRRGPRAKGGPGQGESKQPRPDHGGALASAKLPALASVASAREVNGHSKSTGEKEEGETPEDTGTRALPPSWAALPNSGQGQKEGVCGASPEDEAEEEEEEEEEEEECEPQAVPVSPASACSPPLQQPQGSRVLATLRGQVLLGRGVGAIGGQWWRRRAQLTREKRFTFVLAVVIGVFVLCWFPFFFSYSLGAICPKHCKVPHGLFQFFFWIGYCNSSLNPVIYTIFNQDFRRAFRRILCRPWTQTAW

[2] = target: T2, Alpha-2A adrenergic receptor (Homo sapiens, UniProt P08913); assay: Binding affinity towards Alpha-2A adrenergic receptor
T2 sequence (P08913 whole entry): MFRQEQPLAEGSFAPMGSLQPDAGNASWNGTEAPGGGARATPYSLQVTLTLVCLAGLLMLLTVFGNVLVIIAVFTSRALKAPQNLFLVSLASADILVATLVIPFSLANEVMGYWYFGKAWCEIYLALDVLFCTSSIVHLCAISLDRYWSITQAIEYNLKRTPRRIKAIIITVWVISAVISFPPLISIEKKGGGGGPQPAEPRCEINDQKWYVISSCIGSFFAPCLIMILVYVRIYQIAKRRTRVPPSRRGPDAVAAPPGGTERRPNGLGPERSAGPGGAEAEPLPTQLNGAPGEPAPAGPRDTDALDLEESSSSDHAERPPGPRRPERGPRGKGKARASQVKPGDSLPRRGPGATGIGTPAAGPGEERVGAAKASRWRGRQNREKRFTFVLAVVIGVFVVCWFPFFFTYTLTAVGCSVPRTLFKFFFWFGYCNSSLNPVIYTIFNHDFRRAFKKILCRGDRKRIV

[3] = target: T3, Alpha-2C adrenergic receptor (Homo sapiens, UniProt P18825); assay: Binding affinity towards alpha-2C adrenergic receptor
T3 sequence (P18825 whole entry): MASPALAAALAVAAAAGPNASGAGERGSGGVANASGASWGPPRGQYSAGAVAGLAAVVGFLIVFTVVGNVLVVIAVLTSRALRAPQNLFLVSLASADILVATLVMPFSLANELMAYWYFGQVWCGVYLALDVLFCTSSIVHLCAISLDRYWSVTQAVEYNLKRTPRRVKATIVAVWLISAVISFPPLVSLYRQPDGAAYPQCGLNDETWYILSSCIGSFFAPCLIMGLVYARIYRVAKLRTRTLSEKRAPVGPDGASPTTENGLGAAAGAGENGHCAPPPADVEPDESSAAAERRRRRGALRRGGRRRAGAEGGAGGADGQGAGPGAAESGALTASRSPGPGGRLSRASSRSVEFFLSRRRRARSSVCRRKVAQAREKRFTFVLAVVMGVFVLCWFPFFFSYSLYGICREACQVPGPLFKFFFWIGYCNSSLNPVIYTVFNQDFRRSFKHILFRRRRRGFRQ

Rattus norvegicus = species on record: Rattus norvegicus; assay: Selectivity ratio of alpha1/alpha2d
[4] = target: T4, Adrenergic receptor alpha-1 (Rattus norvegicus, UniProt P15823+P23944+P43140); assay: Tested for Binding affinity towards alpha-1 adrenergic receptor; format: protein assay
T4 sequence (P15823 whole entry): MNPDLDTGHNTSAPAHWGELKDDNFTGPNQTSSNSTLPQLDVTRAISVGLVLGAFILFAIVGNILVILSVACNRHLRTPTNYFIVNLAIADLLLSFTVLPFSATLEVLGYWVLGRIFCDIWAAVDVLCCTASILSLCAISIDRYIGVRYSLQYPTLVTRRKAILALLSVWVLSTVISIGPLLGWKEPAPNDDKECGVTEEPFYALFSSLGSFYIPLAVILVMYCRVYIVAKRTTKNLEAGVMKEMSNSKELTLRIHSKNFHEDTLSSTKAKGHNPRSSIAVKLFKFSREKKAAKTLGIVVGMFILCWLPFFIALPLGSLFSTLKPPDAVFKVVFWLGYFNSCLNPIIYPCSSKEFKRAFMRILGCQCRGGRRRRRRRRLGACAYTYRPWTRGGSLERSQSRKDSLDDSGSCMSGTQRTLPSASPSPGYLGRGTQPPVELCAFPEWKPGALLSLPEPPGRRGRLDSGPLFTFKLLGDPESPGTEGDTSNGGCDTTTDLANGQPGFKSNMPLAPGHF
T4 sequence (P23944 whole entry): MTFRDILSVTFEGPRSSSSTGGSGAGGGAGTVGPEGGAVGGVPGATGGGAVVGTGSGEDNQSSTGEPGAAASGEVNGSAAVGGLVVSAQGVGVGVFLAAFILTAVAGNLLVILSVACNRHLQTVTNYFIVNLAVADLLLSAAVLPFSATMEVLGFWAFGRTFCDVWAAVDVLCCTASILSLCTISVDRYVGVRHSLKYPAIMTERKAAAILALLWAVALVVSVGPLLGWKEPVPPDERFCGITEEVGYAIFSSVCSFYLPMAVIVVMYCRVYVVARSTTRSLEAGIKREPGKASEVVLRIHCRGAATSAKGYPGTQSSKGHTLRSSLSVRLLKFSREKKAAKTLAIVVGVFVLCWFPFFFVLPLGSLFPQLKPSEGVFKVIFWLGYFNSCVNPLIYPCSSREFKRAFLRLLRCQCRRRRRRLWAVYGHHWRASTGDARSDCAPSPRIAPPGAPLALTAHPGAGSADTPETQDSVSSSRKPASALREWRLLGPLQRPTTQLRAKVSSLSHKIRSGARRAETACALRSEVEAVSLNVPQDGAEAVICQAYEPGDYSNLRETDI
T4 sequence (P43140 whole entry): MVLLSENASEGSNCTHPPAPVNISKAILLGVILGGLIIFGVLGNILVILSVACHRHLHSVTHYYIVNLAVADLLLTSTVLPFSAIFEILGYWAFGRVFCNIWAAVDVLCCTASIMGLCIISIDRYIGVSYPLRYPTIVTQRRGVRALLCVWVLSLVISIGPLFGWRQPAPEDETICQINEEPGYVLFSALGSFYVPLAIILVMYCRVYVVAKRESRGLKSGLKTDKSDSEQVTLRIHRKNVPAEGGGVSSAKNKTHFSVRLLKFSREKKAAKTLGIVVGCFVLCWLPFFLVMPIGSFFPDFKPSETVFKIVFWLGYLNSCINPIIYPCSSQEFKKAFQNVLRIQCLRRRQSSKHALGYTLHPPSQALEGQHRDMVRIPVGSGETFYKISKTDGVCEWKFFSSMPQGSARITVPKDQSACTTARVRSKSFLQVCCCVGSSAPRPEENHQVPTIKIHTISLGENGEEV

[5] = target: T5, Alpha-2A adrenergic receptor (Rattus norvegicus, UniProt P22909); assay: Binding affinity towards alpha-2D adrenergic receptor
T5 sequence (P22909 whole entry): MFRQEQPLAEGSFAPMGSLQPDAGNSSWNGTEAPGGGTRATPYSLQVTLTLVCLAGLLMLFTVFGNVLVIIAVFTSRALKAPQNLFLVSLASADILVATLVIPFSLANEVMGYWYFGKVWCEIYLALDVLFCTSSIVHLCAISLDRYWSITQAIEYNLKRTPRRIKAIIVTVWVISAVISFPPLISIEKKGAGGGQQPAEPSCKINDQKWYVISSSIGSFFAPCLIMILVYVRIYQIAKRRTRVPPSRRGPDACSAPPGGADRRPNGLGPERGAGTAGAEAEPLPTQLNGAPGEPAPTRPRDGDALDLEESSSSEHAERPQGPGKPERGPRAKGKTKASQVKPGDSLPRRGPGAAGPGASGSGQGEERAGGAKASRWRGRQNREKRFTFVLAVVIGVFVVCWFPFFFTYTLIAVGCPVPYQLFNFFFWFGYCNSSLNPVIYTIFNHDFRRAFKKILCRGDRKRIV

[6] = target: T6, Alpha-2A adrenergic receptor (Homo sapiens) (UniProt P08913); assay: Tested for Binding affinity towards Alpha-2A adrenergic receptor at 1 uM
T6 sequence (whole entry): T2 sequence (P08913 whole entry)

[7] = target: T7, Alpha-2C adrenergic receptor (Homo sapiens) (UniProt P18825); assay: Tested for Binding affinity towards alpha-2C adrenergic receptor in rat cells at 1 uM; format: cell-based
T7 sequence (whole entry): T3 sequence (P18825 whole entry)

[8] = target: T1, Alpha-2B adrenergic receptor; assay: Tested for Binding affinity towards alpha-2B adrenergic receptor

c1nc(C2CCCc3sccc32)c[nH]1 (stereo not drawn) showed a Ki [1] of 99 nM, a Ki [2] of 27 nM and a Ki [3] of 172 nM. The Ratio (Rattus norvegicus) was 196.
Work on Cc1cccc([C@H](C)c2c[nH]cn2)c1C [DEXMEDETOMIDINE] yielded a Ki [4] of 5 nM and a Ratio (Rattus norvegicus) of 333.
Cc1sc(C)c2c1CCC=C2c1c[nH]cn1 was tested, and the Ratio (Rattus norvegicus) was 11600.
c1cc(-c2c[nH]cn2)c2ccsc2c1 showed a Ki [1] of 663 nM, a Ki [2] of 277 nM and a Ratio (Rattus norvegicus) of 132.
Compound C1=C(c2c[nH]cn2)c2sccc2CC1 has a Ratio (Rattus norvegicus) of 133.
Work on C1=C(c2c[nH]cn2)c2ccsc2CC1 yielded a Ki [1] of 621 nM, a Ki [2] of 254 nM and a Ratio (Rattus norvegicus) of 295.
With Cc1sc(C)c2c1CCCC2c1c[nH]cn1 (stereo not drawn) the Ki [1] was 141 nM, the Ki [2] was 68 nM and the Ki [3] was 205 nM. For the same compound, the Ratio (Rattus norvegicus) was 17.
Cc1cccc([C@H](C)c2cnc[nH]2)c1C [DEXMEDETOMIDINE] gave a Ki [5] of 0.015 nM.
c1nc(C2CCCc3ccsc32)c[nH]1 (stereo not drawn) showed an inhibition [6] of 87%, an inhibition [7] of 54% and a Ratio (Rattus norvegicus) of 260.
Compound C1=C(c2cnc[nH]2)c2sccc2CC1 has a Ki [8] of 940 nM and a Ki [2] of 224 nM.
Cc1sc(C)c2c1CCC=C2c1cnc[nH]1 showed a Ki [1] of 100 nM, a Ki [5] of 8.6 nM and a Ki [2] of 25 nM. For the same compound, the Ki [3] was 26 nM.
